Laboratory results reported in US5087284A, “5-substituted thiadiazole ureas and their use as herbicides” (Rhone-Poulenc, Inc., priority 1989, dated 1992).

Key:
Assay type in all cases: in vivo
crops and weed species = assay: Pre- and post-emergence herbicide tests, overall assessment; conditions: TABLES III-VI
Experimental: All crop and weed species were planted individually in 3" plastic pots containing potting soil. Four seeds each of corn, cotton, and snapbeans were seeded to a depth equal to the diameter of the seed. All other species were surface seeded and sprinkled with screened soil in an amount sufficient to cover the seed. Immediately after planting, all pots were watered by sub-irrigation in greenhouse trays. Pots for the pre-emergence phase were seeded one day before treatment.
Planting dates for the post-emergence phase were varied so that all seedlings would reach the desired stage of development simultaneously. The proper stage of seedling development for treatment in the post-emergence phase is as follows:
Compounds were tested at rates of application equivalent to 8 lbs. of actual compound per acre in a spray volume of 38 gallons per acre. Spray hood constants required to deliver the above volume are as follows:
Spray applications were made in a hood containing a removable belt and fixed spray nozzle. For passage through the spray hood, one pot of each specie (pre-emergence phase) was placed on the rear half of the flat. Treatments were removed to the greenhose after spraying. Watering during the observation period was done only by sub-irrigation.
Two weeks after treatment, pre- and post-emergence injury or control was visually rated, and the results were as shown in the following tables. Pre-emergence data are provided in TABLE III and post-emergence data are provided in TABLE IV, for compounds having the formula illustrated in TABLE I. Correspondingly, pre-emergence and post-emergence data, respectively, are set forth in TABLES V AND VI, for compounds having the formula illustrated in TABLE II.

Oats [1] = assay: Field pre-emergence test, oats; conditions: reading 0 (no effect) to 10 (completely killed), the values are: rating score 0–10
Experimental: (§1) Forty rows, 70 feet long, were planted to weeds and crops. Two rows were planted on each bed. Beds were 40 inches apart from center to center. The two rows were about 10 inches apart on each. Beds were rolled prior to planting to provide a uniform smooth surface. Soil temperature at a depth of 11/2 inches was 66° F. at time of planting. Post-emergence applications were made by spraying bands across rows 10 feet wide using a self-propelled plot sprayer with a 10 foot boom equipped with Teejet 8001 flat spray nozzle tips and operated at 40 psi. A total of 84 fluid ounces of spray material was applied to three replicates. Each replicate plot was 10 feet wide by 66.67 feet long.
(§2) An additional 100 feet of crops and weeds shown in TABLES XIII and XIV were planted in the same manner as the above post-emergence plots. Soil temperature at planting was […] at a depth of 11/2 inches. […]
(§3) Eight days after the application, readings were made on the effect of the chemicals on each crop and weed in the post-emergence treatment. A reading of 0 was recorded if no effect was observed; 10 recorded if the plants were completely killed, and readings of 1 to 9 for intermediate kills. A second reading of the post-emergence treatments was made 14 days after the application.
(§4) Readings were made 14 and 20 days after the pre-emergence application.

Wheat [2] = assay: Field pre-emergence test, wheat; conditions: reading 0 (no effect) to 10 (completely killed), the values are: rating score 0–10
Experimental: as §1, §2, §3, §4

Sinapis [3] = assay: Field post-emergence test, Sinapis; conditions: 2 lbs/acre, reading 0 (no effect) to 10 (completely killed), the values are: rating score 0–10
Experimental: as §1, §3

Wheat [4] = assay: Field post-emergence test, wheat; conditions: 2 lbs/acre, reading 0 (no effect) to 10 (completely killed), the values are: control rating (0–10 scale)
Experimental: as §1, §3

Oats [5] = assay: Field post-emergence test, oats; conditions: 2 lbs/acre, reading 0 (no effect) to 10 (completely killed), the values are: rating score 0–10
Experimental: as §1, §3

Sinapis [6] = assay: Field pre-emergence test, Sinapis; conditions: reading 0 (no effect) to 10 (completely killed), the values are: rating score 0–10
Experimental: as §1, §2, §3, §4

| Compound | selectivity when applied to a certain crop or weed species (crops and weed species) | effectiveness applied to a variety of crops and weed species (crops and weed species) | other results |
| --- | --- | --- | --- |
| CNC(=O)Nc1nnc(COC)s1 [Example 25] | more selective |  |  |
| CNC(=O)N(C)c1nnc(C(F)(F)F)s1 [Example 36] |  | extremely effective |  |
| CCN(C(=O)NC)c1nnc(C(F)(F)F)s1 [Example 37] |  | extremely effective |  |
| C=CCNC(=O)Nc1nnc(C(F)(F)F)s1 [Example 12] |  |  | selectivity post-emergence versus pre-emergence (crops and weed species): control post-emergence growth, while have little effect in regard to pre-emergence |
| O=C(Nc1ccc(Cl)cc1)Nc1nnc(C(F)(F)F)s1 [Example 15] | more selective |  |  |
| CNC(=O)Nc1nnc(SC)s1 [Example 26] |  | extremely effective |  |
| CNC(=O)Nc1nncs1 [Example 35] | more selective |  |  |
| O=C(Nc1ccc(Cl)c(Cl)c1)Nc1nnc(C(F)(F)F)s1 [Example 16] | more selective |  |  |
| CN(C)C(=O)Nc1nnc(C(F)(F)F)s1 [Example 2, 1,1-Dimethyl-3-[5-Trifluoromethyl-2-(1,3,4-Thiadiazolyl)] Urea] |  | extremely effective |  |
| CCNC(=O)Nc1nnc(C(F)(F)F)s1 [Example 9] | more selective |  |  |
| CSc1nnc(N(C)C(=O)N(C)C)s1 [Example 5, 1,1,3-trimethyl-3-[5-methylthio-3-(1,3,4-thiadiazolyl)] urea] |  | extremely effective |  |
| CNC(=O)Nc1nnc(C(F)(F)F)s1 [Example 1, 1-Methyl-3-[5-Trifluoromethyl-2-(1,3,4-Thiadiazolyl)] Urea] |  | extremely effective | PRE-EMERGENCY ACTIVITY, % CONTROL (Oats [1]; 1 lbs/acre): 10; PRE-EMERGENCY ACTIVITY, % CONTROL (Oats [1]; 2 lbs/acre): 10; PRE-EMERGENCY ACTIVITY, % CONTROL (Wheat [2]; 1 lbs/acre): 10; PRE-EMERGENCY ACTIVITY, % CONTROL (Wheat [2]; 2 lbs/acre): 10; POST-EMERGENCE ACTIVITY, % CONTROL (Sinapis [3]): 10; POST-EMERGENCE ACTIVITY, % CONTROL (Wheat [4]): 10; POST-EMERGENCE ACTIVITY, % CONTROL (Oats [5]): 9; PRE-EMERGENCY ACTIVITY, % CONTROL (Sinapis [6]; 1 lbs/acre): 10; PRE-EMERGENCY ACTIVITY, % CONTROL (Sinapis [6]; 2 lbs/acre): 10 |
| Cc1nnc(NC(=O)N(C)C)s1 [Example 19] |  |  | selectivity post-emergence versus pre-emergence (crops and weed species): The converse of this relationship |
| CNC(=O)Nc1nnc(CC(C)C)s1 [Example 21] | more selective |  |  |
| CCc1nnc(NC(=O)N(C)C)s1 [Example 20] | more selective |  |  |
